ChEMBL document CHEMBL1131881 (Bioorg Med Chem Lett, 1999)

Target: Sodium-dependent dopamine transporter (Homo sapiens, UniProt Q01959)
Assay: Binding affinity towards dopamine transporter (DAT)

Sequence of Sodium-dependent dopamine transporter (Q01959 whole entry): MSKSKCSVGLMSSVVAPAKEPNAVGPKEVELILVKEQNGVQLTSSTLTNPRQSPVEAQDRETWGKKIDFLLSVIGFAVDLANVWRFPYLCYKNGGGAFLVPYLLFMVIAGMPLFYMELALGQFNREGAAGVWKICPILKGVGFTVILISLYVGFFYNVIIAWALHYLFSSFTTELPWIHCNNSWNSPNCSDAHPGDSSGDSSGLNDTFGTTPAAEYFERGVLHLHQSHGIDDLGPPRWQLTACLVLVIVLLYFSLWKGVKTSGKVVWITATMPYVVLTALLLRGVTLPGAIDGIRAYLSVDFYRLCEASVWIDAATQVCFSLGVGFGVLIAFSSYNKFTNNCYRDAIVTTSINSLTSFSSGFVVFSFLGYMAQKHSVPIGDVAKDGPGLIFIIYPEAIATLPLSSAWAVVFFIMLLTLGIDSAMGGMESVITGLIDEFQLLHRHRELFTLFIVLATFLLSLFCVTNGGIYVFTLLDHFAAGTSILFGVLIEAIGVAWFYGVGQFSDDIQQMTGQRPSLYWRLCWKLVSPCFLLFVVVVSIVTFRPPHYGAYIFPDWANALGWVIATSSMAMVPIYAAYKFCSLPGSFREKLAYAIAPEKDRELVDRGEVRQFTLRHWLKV

For `CCC[C@@H]1CN(C)CC[C@@H]1c1ccc(Cl)cc1`, the IC50 was 3 nM.
